For data set [1], the target named is T1, Aldurazyme (laronidase) IDUA activity in bone marrow (Homo sapiens, UniProt P35475).
T1 construct: purchased Aldurazyme; host or cells: administered i.v. to C57BL/6 male mice
T1 sequence (P35475 26-653 limits assumed): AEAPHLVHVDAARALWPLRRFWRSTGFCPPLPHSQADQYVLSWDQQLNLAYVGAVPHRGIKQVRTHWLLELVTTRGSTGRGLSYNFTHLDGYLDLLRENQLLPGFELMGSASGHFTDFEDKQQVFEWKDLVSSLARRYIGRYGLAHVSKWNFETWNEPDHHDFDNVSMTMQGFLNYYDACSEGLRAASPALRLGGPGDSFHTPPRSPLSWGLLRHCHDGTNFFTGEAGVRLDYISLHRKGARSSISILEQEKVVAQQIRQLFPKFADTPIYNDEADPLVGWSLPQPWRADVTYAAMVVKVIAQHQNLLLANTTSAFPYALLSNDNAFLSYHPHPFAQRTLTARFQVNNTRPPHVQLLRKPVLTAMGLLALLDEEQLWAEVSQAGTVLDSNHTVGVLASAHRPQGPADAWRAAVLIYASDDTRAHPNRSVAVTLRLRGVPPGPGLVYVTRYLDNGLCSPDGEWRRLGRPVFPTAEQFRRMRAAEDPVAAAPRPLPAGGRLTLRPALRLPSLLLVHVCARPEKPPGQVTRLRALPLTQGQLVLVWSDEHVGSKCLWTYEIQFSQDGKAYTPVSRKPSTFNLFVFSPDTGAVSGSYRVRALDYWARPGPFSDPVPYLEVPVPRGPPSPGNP
The experiment in a line: IDUA assay in bone marrow after i.v. Aldurazyme with or without compound. To be noted: mice, compound i.v. + Aldurazyme 1.2 mg/kg i.v. Format: in vivo, C57BL/6 male mice. Here is the method: (§1) Evaluation of IDUA activity in mouse bone joint cartilage samples obtained from BIO-PCY-19-025 study, where C57BL/6 male mice were administered with 1.2 mg/kg Aldurazyme (i.v. bolus administration) in the presence and absence of Compound A.
(§2) Groups Details: • G1: Vehicle 2 +Aldurazyme (1.2 mg/kg,i.v.,) QD×1(n=6) [vehicle 2:NMP (5%) + Solutol HS-15 (5%) + Normal saline (45%) + PEG-400 (45%)]; • G2: Compound A (5 mg/kg, i.v.) + Aldurazyme (1.2 mg/kg, i.v.) QD x 1 (n=6); • G3: Compound A (10 mg/kg, i.v.) + Aldurazyme (1.2 mg/kg, i.v.) QD x 1 (n=6); • G4: Compound A (20 mg/kg, i.v.) + Aldurazyme (1.2 mg/kg, i.v.) QD x 1 (n=6); and • G5: Naïve Control (n=6).
Bone marrow samples from mice were collected at indicated time points. After repeated freeze thaw cycles for protein extraction, bone marrow samples were diluted in formate buffer (0.4 M, pH 3.5). Total protein was estimated using Bradford reagent. 25 µl of tissue homogenate and plasma samples were added to 25 µl of 0.18 mM of 4 MUI substrate and incubated at 37° C. for 30 min. […] Plate was read at excitation 355 nm and emission 460 nm. […]
(§3) IDUA activity was assessed from 4-MU standard curve. […] Final IDUA enzyme activity was expressed as nmols/mg of protein/hr. Data was analyzed using GraphPad prism software with one way ANOVA followed by Dunnett’s comparison test. […]

In data set [2] the target is T2, Aldurazyme (laronidase) IDUA activity in plasma (Homo sapiens, UniProt P35475).
T2 construct: purchased Aldurazyme; host or cells: administered i.v. to C57BL/6 male mice
T2 sequence (P35475 26-653 limits assumed): T1 sequence (P35475 26-653 limits assumed)
The experiment in a line: IDUA assay in plasma after i.v. Aldurazyme with or without compound. Format: in vivo, C57BL/6 male mice. The settings on record: mice, compound 5, 10, 20 mg/kg i.v. + Aldurazyme 1.2 mg/kg i.v. Here is the method:
as §1, §2
Plasma samples from mice were collected at indicated time points. Plasma samples were diluted in formate buffer and total protein was estimated using Bradford reagent. 25 µl of tissue homogenate and plasma samples were added to 25 µl of 0.18 mM of 4 MUI substrate and incubated at 37° C. for 30 min. Reaction was terminated using 200 µl of stop solution (0.3 M Glycine and 0.2 M sodium carbonate, pH 10.4). Plate was read at excitation 355 nm and emission 460 nm. […]
as §3

The target in data set [3] is T3, Recombinant human α-L-iduronidase protein IDUA (Homo sapiens, UniProt P35475).
T3 construct: Ala26-Pro653 with a C-terminal 10_His tag; 10xHis (C); host or cells: HEK293f
T3 sequence (P35475 26-653): T1 sequence (P35475 26-653 limits assumed)
The experiment in a line: IDUA inhibition assay. Format: biochemical. To be noted: 4-MU alpha-L-iduronide substrate, pH 3.5, even at high concentrations. Here is the method: The ability of Compound of the Disclosure to inhibit IDUA was assessed by the assay described below.
Recombinant human α-L-iduronidase protein IDUA PR_06_WT_X (obtained in the Institute of Biotechnology and Biomedicine in the UAB, Bellaterra, Spain) was prepared at the desired concentration in PBS:
Recombinant Human IDUA. HEK293f. Ala26-Pro653 with a C-terminal 10_His tag. Protein buffer: 40 mM sodium acetate, 400 mM NaCl and 20% glycerol, pH=5. Produced by PPP IBB UAB.
The activity assay (3 replicates of each sample) included the following procedures:
In dark 96-well plates compatible with fluorometer: • 1) 25 µL of Recombinant protein or PBS (in blank samples); • 2) 1 µL CO (50X concentrate, made in an intermediate plate) or DMSO for the untreated samples; • 3) 25 µL of 200 µM substrate solution (from a stock solution of 20 mM of substrate in DMSO), 4-Methylumbelliferyl alpha-L-iduronide (Glycosynth, 44076) in 0,4 M sodium formate, pH 3,5, and 0,2% triton; • 4) Mix (shaker); • 5) 37° C. 60 min; • 6) Stop the reaction by adding 200 µL of 0,5 M Glycine / 0,3 M NaOH, pH=10; and • 7) Read Fluorescence at Ex/Em: 340/460 nm.

In the case of `CCN(CC(=O)Nc1c(Cl)cccc1Cl)Cc1nc2ccsc2c(=O)[nH]1` [Compound A], the “IDUA enzymatic activity in bone marrow” value in data set [1] was “increases IDUA enzymatic activity in a panel of tissues”. Also, the “plasma levels / PK profile of Laronidase” value in data set [2] is recorded as “increasing its plasma levels in a dose-dependent manner”. In data set [3], the “inhibition of IDUA enzymatic activity” value is “does not inhibit human IDUA”.

The record behind these values is patent US20230140216A1, “COMBINATION THERAPY FOR TREATING MPS1” (GAIN THERAPEUTICS SA, priority 2020, published 2023).
